Experimental data published in patent US12630498B2 (Genzyme Corporation, priority 2019, dated 2026).

Target: T1, human Cystic Fibrosis Transmembrane Conductance Regulator (CFTR) harboring the ΔF508 mutation (Homo sapiens, UniProt P13569, DEL508-508)
T1 construct: expressed in transfected cells; host or cells: H441 carcinoma line (G418-selected)
Assay: H441 cell ΔF508-CFTR-HRP cell surface assay (Emax and EC50)
Format: cell-based
Settings: for Emax: NCI-H441, NA = Not active
Procedure, shortened: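 H441 and 41o- bronchial epithelial cells expressing ΔF508-CFTR with an extracellular-loop-4 HRP tag were treated with a 15-point compound series (24.5–0.001 μM) for two nights, H441 at 27° C, 41o- at 37° C with 0.0005 mg/ml doxycycline. Surface HRP luminescence read; % of maximum VX809 signal and EC50 derived.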

T1 sequence (P13569 with tags, fused parts or gaps DEL508-508): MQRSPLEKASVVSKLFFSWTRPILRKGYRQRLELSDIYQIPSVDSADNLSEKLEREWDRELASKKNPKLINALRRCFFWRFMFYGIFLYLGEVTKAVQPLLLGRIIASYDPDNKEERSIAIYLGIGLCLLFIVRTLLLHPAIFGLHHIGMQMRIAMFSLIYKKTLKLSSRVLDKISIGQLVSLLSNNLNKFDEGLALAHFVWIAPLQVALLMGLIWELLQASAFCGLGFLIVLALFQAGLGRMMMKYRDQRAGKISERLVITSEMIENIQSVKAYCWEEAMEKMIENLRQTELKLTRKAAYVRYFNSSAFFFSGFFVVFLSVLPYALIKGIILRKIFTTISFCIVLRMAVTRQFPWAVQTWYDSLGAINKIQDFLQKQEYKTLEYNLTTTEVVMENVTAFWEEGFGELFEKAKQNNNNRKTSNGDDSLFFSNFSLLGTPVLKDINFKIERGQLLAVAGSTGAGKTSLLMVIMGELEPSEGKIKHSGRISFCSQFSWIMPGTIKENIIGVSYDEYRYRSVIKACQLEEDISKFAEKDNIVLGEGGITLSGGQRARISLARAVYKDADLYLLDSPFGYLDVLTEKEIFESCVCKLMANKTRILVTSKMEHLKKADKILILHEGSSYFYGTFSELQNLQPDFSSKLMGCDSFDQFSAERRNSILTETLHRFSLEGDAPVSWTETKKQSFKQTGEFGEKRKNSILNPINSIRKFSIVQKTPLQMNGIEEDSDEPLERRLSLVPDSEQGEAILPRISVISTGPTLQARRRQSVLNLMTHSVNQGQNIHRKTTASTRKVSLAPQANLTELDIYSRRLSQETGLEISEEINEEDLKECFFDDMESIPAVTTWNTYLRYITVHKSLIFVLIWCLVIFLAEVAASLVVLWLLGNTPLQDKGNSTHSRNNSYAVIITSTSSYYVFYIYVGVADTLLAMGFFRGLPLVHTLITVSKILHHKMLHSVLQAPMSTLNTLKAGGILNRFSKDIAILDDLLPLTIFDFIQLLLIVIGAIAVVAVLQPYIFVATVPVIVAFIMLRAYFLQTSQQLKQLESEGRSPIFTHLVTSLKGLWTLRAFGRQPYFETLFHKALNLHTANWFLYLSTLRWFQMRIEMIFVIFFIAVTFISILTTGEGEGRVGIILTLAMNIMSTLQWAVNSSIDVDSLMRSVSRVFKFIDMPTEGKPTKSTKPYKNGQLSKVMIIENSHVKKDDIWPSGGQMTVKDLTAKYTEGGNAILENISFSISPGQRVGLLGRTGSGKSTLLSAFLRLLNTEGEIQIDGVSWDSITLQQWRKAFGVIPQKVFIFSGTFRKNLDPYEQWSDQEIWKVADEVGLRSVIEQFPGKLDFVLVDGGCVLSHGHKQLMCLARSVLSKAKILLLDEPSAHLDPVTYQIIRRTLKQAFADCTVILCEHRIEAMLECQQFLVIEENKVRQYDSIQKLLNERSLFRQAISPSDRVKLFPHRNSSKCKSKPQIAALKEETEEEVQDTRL

| EC50 [nM] | Emax [%] | Compound |
| --- | --- | --- |
| 1100 | 66.1 | O=C(N[C@H](C(=O)O)C12CC(C(F)(F)F)(C1)C2)c1ccc2ccccc2c1OCc1ccc(S(F)(F)(F)(F)F)cc1 [Example 24, (S)-2-(1-((4-(pentafluoro-λ^6-sulfanyl)benzyl)oxy)-2-naphthamido)-2-(3-(trifluoromethyl)bicyclo[1.1.1]pentan-1-yl)acetic Acid] |
| 1400 | 47.6 | O=C(N[C@H](Cc1ccccc1)C(=O)O)c1ccc2ccccc2c1OCc1ccc(C(F)(F)F)cc1 [Example 89, (1-((4-(trifluoromethyl)benzyl)oxy)-2-naphthoyl)-D-phenylalanine] |
| 700 | 37.2 | O=C(N[C@H](C(=O)O)C12CC(C(F)(F)F)(C1)C2)c1ccc2cc(F)ccc2c1OCc1ccc(OC(F)(F)F)cc1 [Example 4, (S)-2-(6-fluoro-1-((4-(trifluoromethoxy)benzyl)oxy)-2-naphthamido)-2-(3-(trifluoromethyl)bicyclo[1.1.1]pentan-1-yl)acetic Acid] |
| 200 | 261 | Cc1cc(F)c2ccc(C(=O)N[C@H](C(=O)O)C(C)(C)C)c(OCc3ccc(OC(F)(F)F)cc3)c2c1 [Example 271, (2S)-2-[[5-fluoro-7-methyl-1-[[4-(trifluoromethoxy)phenyl]methoxy]naphthalene-2-carbonyl]amino]-3,3-dimethyl-butanoic Acid] |
| 12200 | 166 | CC(C)(C)[C@H](NC(=O)c1ccc2ccccc2c1OCC#CC1CC1)C(=O)O [Example 270, (2S)-2-[[1-(3-cyclopropylprop-2-ynoxy)naphthalene-2-carbonyl]amino]-3,3-dimethyl-butanoic Acid] |
| – | 14 | NC12CCC(C(NC(=O)c3ccc4cc(F)ccc4c3OCc3ccc(C(F)(F)F)cc3)C(=O)O)(CC1)CC2 (stereo not shown) [Example 185, 2-(4-aminobicyclo[2.2.2]octan-1-yl)-2-(6-fluoro-1-((4-(trifluoromethyl)benzyl)oxy)-2-naphthamido)acetic Acid] |
| 5700 | 89.9 | CC(OCc1ccccc1)[C@H](NC(=O)c1ccc2cc(F)ccc2c1OCc1nc2ccccc2s1)C(=O)O (stereo in doubt) [Example 215, N-(1-(benzo[d]thiazol-2-ylmethoxy)-6-fluoro-2-naphthoyl)-O-benzyl-L-allothreonine] |
| 5100 | 19.9 | CC1(C(NC(=O)c2ccc3ccccc3c2OCc2ccc(S(C)(=O)=O)cc2)C(=O)O)CCCCC1 (stereo not shown) [Example 44, 2-(1-methylcyclohexyl)-2-(1-((4-(methylsulfonyl)benzyl)oxy)-2-naphthamido)acetic Acid] |
| – | 18.8 | NC(N)=Nc1ccc(C[C@@H](NC(=O)c2ccc3ccccc3c2OCc2ccc(C(F)(F)F)cc2)C(=O)O)cc1 [Example 105, (R)-3-(4-((diaminomethylene)amino)phenyl)-2-(1-((4-(trifluoromethyl)benzyl)oxy)-2-naphthamido)propanoic Acid] |
| 1100 | 80.8 | COc1ccc2c(OCc3ccc(C(F)(F)F)cc3)c(C(=O)N[C@H](C(=O)O)C(C)(C)C)ccc2c1 [Example 38, (S)-2-(6-methoxy-1-((4-(trifluoromethyl)benzyl)oxy)-2-naphthamido)-3,3-dimethylbutanoic Acid] |
| 1700 | 48.4 | O=C(N[C@H](C(=O)O)C12CC(C(F)(F)F)(C1)C2)c1ccc2cc(F)ccc2c1OCc1ccc(C(F)(F)F)cc1 [Example 15, (S)-2-(6-fluoro-1-((4-(trifluoromethyl)benzyl)oxy)-2-naphthamido)-2-(3-(trifluoromethyl)bicyclo[1.1.1]pentan-1-yl)acetic Acid] |
| 1600 | 47 | CC(C)(C)C[C@H](NC(=O)c1ccc2cc(F)ccc2c1OCc1ccc(SC(F)(F)F)cc1)C(=O)O [Example 117, (S)-2-(6-fluoro-1-((4-((trifluoromethyl)thio)benzyl)oxy)-2-naphthamido)-4,4-dimethylpentanoic Acid] |
| 12800 | 119 | CC(C)C#CCOc1c(C(=O)N[C@H](C(=O)O)C(C)(C)C)ccc2cc(F)ccc12 [Example 224, (2S)-2-[[6-fluoro-1-(4-methylpent-2-ynoxy)naphthalene-2-carbonyl]amino]-3,3-dimethyl-butanoic Acid] |
| 200 | 219 | CC(C)(C)[C@H](NC(=O)c1ccc2ccc(C(F)(F)F)cc2c1OCc1ccc(OC(F)(F)F)cc1)C(=O)O [compound 292, (S)-3,3-dimethyl-2-(1-((4-(trifluoromethoxy)benzyl)oxy)-7-(trifluoromethyl)-2-naphthamido)butanoic Acid] |
| – | 27.8 | CC(C)(C)[C@H](NC(=O)c1ccc2ccccc2c1OCC1CCC(CO)CC1)C(=O)O (stereo partly drawn) [Example 29, (S)-2-(1-((4-(hydroxymethyl)cyclohexyl)methoxy)-2-naphthamido)-3,3-dimethylbutanoic Acid] |
| 1600 | 26 | COc1ccc2c(OCc3ccc(SC(F)(F)F)cc3)c(C(=O)N[C@H](C(=O)O)C3CCCC3)ccc2c1 [Example 162, (S)-2-cyclopentyl-2-(6-methoxy-1-((4-((trifluoromethyl)thio)benzyl)oxy)-2-naphthamido)acetic Acid] |

| EC50 [nM] | Emax [%] | Compound |
| --- | --- | --- |
| 200 | 225 | CCCC(C)(CC)[C@H](NC(=O)c1ccc2ccc(F)cc2c1OCc1ccc(OC(F)(F)F)cc1)C(=O)O (stereo partly drawn) [compound 290, (2S)-3-ethyl-2-(7-fluoro-1-((4-(trifluoromethoxy)benzyl)oxy)-2-naphthamido)-3-methylhexanoic Acid] |
| – | 22.4 | O=C(N[C@@H](Cc1ccncc1)C(=O)O)c1ccc2ccccc2c1OCc1ccc(C(F)(F)F)cc1 [Example 103, (S)-3-(pyridin-4-yl)-2-(1-((4-(trifluoromethyl)benzyl)oxy)-2-naphthamido)propanoic Acid] |
| 200 | 3.7 | O=C(N[C@@H](Cc1ccccc1)C(=O)O)c1ccc2ccccc2c1OCc1ccc2c(c1)OCO2 [Example 121, (1-(benzo[d][1,3]dioxol-5-ylmethoxy)-2-naphthoyl)-L-phenylalanine] |
| 300 | 63.6 | CC(C)(c1ccccc1)[C@H](NC(=O)c1ccc2cc(F)ccc2c1OCc1ccc(SC(F)(F)F)cc1)C(=O)O [Example 22, (S)-2-(6-fluoro-1-((4-((trifluoromethyl)thio)benzyl)oxy)-2-naphthamido)-3-methyl-3-phenylbutanoic Acid] |
| 10000 | 70.7 | CC(C)(C)C[C@H](NC(=O)c1ccc2ccccc2c1OC[C@H]1CC[C@@H](C(F)(F)F)CC1)C(=O)O [Example 180, (S)-4,4-dimethyl-2-(1-(((1s,4R)-4-(trifluoromethyl)cyclohexyl)methoxy)-2-naphthamido)pentanoic Acid] |
| 400 | 71 | O=C(N[C@H](C(=O)O)C(c1ccccc1)c1ccccc1)c1ccc2cc(F)ccc2c1OCc1ccc(Cl)c(Cl)c1 [Example 209, (S)-2-(1-((3,4-dichlorobenzyl)oxy)-6-fluoro-2-naphthamido)-3,3-diphenylpropanoic Acid] |
| 1500 | 43.6 | COc1ccc2c(OCc3ccc(SC(F)(F)F)cc3)c(C(=O)N[C@H](C(=O)O)C(C)(C)C)ccc2c1 [Example 63, (S)-2-(6-methoxy-1-((4-((trifluoromethyl)thio)benzyl)oxy)-2-naphthamido)-3,3-dimethylbutanoic Acid] |
| 15400 | 60.7 | CC1(C(NC(=O)c2ccc3ccccc3c2OC[C@H]2CC[C@@H](C(F)(F)F)CC2)C(=O)O)CCCCC1 (stereo partly shown) [Example 39, 2-(1-methylcyclohexyl)-2-(1-(((1s,4s)-4-(trifluoromethyl)cyclohexyl)methoxy)-2-naphthamido)acetic Acid] |
| 3200 | 47.7 | COc1ccc2c(OCc3ccc(C(F)(F)F)cc3)c(C(=O)N[C@@H](CC(C)(C)C)C(=O)O)ccc2c1 [Example 161, (S)-2-(6-methoxy-1-((4-(trifluoromethyl)benzyl)oxy)-2-naphthamido)-4,4-dimethylpentanoic Acid] |
| 2400 | 51.9 | CC(C)(c1ccccc1)[C@H](NC(=O)c1ccc2cc(F)ccc2c1OCC1CCC(F)(F)CC1)C(=O)O [Example 7, (S)-2-(1-((4,4-difluorocyclohexyl)methoxy)-6-fluoro-2-naphthamido)-3-methyl-3-phenylbutanoic Acid] |
| 3800 | 78.4 | CCC(C)(C)[C@H](NC(=O)c1ccc2cc(F)ccc2c1OCC1CCC(F)(F)CC1)C(=O)O [Example 34, (S)-2-(1-((4,4-difluorocyclohexyl)methoxy)-6-fluoro-2-naphthamido)-3,3-dimethylpentanoic Acid] |
| 18300 | 65.2 | C[C@@H](OCc1ccccc1)C(NC(=O)c1ccc2ccccc2c1OCc1nc2ccccc2s1)C(=O)O (stereo partly drawn) [Example 148, (3R)-2-(1-(benzo[d]thiazol-2-ylmethoxy)-2-naphthamido)-3-(benzyloxy)butanoic Acid] |
| – | 16.4 | CC(C)(SC1CCCC1)[C@H](NC(=O)c1ccc2ccccc2c1OCc1ccc(S(C)(=O)=O)cc1)C(=O)O [Example 171] |
| 16800 | 68.9 | C[C@@H](OCc1ccccc1)C(NC(=O)c1ccc2ccccc2c1OCC1CC2CCC1C2)C(=O)O (stereo partly drawn) [Example 147, (3R)-3-(benzyloxy)-2-(1-(bicyclo[2.2.1]heptan-2-ylmethoxy)-2-naphthamido)butanoic Acid] |
| – | 4 | CC(Oc1c(C(=O)N[C@@H](Cc2ccccc2)C(=O)O)ccc2ccccc12)c1ccc(Br)cc1 (stereo partly drawn) [Example 123, (1-(1-(4-bromophenyl)ethoxy)-2-naphthoyl)-L-phenylalanine] |
| 7000 | 17.9 | O=C(N[C@@H](Cc1ccc(C(F)(F)F)cc1)C(=O)O)c1ccc2ccccc2c1OCc1ccc(OC(F)(F)F)cc1 [Example 190, (S)-2-(1-((4-(trifluoromethoxy)benzyl)oxy)-2-naphthamido)-3-(4-(trifluoromethyl)phenyl)propanoic Acid] |
